Data from patent US10487045B2, “Adamantane derivative and use thereof” (TOHOKU UNIVERSITY, priority 2016, dated 2019).

Key:
Kir6.2 channel = target: T1, Kir6.2 channel (Mus musculus, UniProt Q61743); assay: Calcium imaging method (Fura2) in Kir6.2 channel-overexpressing cells; format: cell-based
T1 construct: expressed in transfected cells; host or cells: Neuro2A (N2A) cells, transient transfection with pcDNA3.1-Kir6.2 (gift of Dr. Toru Ishizuka, Tohoku University)
T1 sequence (Q61743 1-390): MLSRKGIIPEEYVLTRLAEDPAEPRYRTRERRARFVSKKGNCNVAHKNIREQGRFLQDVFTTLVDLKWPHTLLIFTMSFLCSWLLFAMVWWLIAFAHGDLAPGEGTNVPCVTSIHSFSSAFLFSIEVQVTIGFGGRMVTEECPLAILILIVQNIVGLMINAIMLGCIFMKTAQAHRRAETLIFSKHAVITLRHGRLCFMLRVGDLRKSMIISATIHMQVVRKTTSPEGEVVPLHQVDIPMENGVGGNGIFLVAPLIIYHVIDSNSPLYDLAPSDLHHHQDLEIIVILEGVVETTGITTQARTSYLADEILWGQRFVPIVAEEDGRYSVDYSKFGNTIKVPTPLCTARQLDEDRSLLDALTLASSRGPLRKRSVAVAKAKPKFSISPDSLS
Method: Using the same Kir6.2 channel-overexpressing cells as in Test Example 1, the amount of calcium that flows into cells from outside the cells by TP-014 treatment was measured by a calcium imaging method. The calcium imaging method is a method of measuring the amount of calcium based on the intensity of fluorescence of cultured nerve cells, which are treated in a culture solution containing a calcium fluorescent dye (Fura2, manufactured by Dojindo Laboratories) in a concentration of 4 μM. Imaging was carried out by an imaging apparatus (LAMBDA10-2, manufactured by SUTTER INSTRUMENT) in accordance with the manual attached to the apparatus.

APP23 mice = assay: New object recognition test in Alzheimer's disease model mice; format: in vivo; conditions: APP23 mice 12 month-old, administered for two months
Method: The new object recognition test method is carried out as follows. Two identical shape building blocks are placed in a mouse cage and mice are allowed to play for 10 minutes (this is referred to as a training trial). One hour later, one of the building blocks was replaced with a different-shaped building block. Since normal mice show interest on a new object, they play a longer time with the different-shaped building block. The Alzheimer's disease (model) mice, since the mice fail to recognize the new object (building block), are seemed to have memory disturbance. Mice are allowed to freely play for further 5 minutes with two building blocks different in shape (this is referred to as retention trial). In the training trial and retention trial, the number of times a mouse is in contact with each of the two objects was counted. The ratio (%) of the number of contact times to the different-shaped building block to the total number of contact times in the retention trial was calculated and used as a discrimination index.

Kir6.1 defective mice = assay: Tail-suspension and forced swim methods in Kir6.1 defective mice (hetero-type); format: in vivo; conditions: chronic treatment
Method: OBX mice were originally established as depression model mice although a deterioration of cognitive function was observed. Depression was analyzed by a tail-suspension method (a) and a forced swim method (b). The tail-suspension method is a method of pinching the tail of a mouse and hanging the mouse upside down. If the mouse hung has depression, immobility time is long. Since a normal mouse moves even if it is hung, the immobility time is short. In the forced swim method, a mouse is forced to swim in water in a beaker. A mouse having depression neither swims nor moves (just floating). Thus the immobility time is measured. Immobility time was long in OBX mice both in the tail-suspension method (a) and the forced swim method (b). The immobility time of a TP-014 chronic administration group (2 weeks, in the same administration method as that previously mentioned) was improved.
Immobility time of Kir6.1 defective mice (hetero-type, n=5 per group) was measured by the tail-suspension method (a) and the forced swim method (b) in the same manner as in FIGS. 11a and 11b. The hetero-type mice are the mice in which the expression level of Kir6.1 channel is half (the homo type mice develops arrhythmia after birth and dies) in contrast to the homo type mice (complete defective mice). […] The chronic treatment with TP-014 was not effective. […]

Kir6.1 channel = target: T2, Kir6.1 channel (Mus musculus, UniProt P97794); assay: Patch-clamp measurement of outward potassium current in Kir6.1 channel-overexpressing cells; format: cell-based; conditions: 10 nM TP-014, Test Example 15 (Kir6.1 channel)
T2 construct: expressed in transfected cells; host or cells: Neuro2A (N2A) cells, transient transfection with pcDNA3.1-Kir6.1 (gift of Prof. Toru Ishizuka, Tohoku University)
T2 sequence (P97794 1-424): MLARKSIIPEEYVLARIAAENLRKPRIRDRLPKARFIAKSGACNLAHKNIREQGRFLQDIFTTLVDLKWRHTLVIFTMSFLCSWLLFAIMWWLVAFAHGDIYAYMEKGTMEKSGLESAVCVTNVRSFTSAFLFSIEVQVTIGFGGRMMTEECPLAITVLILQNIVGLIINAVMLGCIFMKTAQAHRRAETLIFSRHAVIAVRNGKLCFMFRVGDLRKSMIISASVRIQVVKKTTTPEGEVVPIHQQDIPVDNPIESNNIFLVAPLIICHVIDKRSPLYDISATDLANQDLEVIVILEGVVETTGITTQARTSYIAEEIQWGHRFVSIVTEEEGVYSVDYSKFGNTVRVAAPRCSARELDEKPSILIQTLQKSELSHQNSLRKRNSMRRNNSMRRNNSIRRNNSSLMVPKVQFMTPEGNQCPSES
Method: A plasmid vector having cDNA of Kir6.1 channel inserted therein: pcDNA3.1-Kir6.1, was obtained from professor Toru Ishizuka of Graduate School of Life Sciences, Tohoku University. N2A cells overexpressing Kir6.1 channel were obtained in the same manner as in “preparation of N2A cells overexpressing Kir6.2 channel” of Test Example 1 except that the above plasmid was used.
Using Kir6.1 channel-overexpressing cells obtained, potassium current flowing outside from cells was measured by the ordinary patch-clamp method. ATP-sensitive potassium channel (Kir6.1 channel) was localized in the cell membrane of the nerve cells. If the channel is inhibited and clogged, the threshold of the nerve cell membrane rises to produce the analogous state as where an action potential is temporarily generated, with the result that potassium current flows out from cells outside and, in place, calcium current flows into the cells from outside. […] This was confirmed by applying immunoblotting (the same conditions as in Test Example 1 were employed except that anti-Kir6.1 channel antibody, n=5) with an anti-Kir6.1 channel antibody (prepared based on an ordinary method) to Kir6.1 channel-overexpressing cells (prepared by the aforementioned method).

- amount of calcium within cells (Kir6.2 channel; TP-014 1-100 nM, 4 minutes after treatment, Kir6.2 channel-overexpressing cells): significantly increased
- outward potassium current (Kir6.1 channel): suppressed
SMILES: O=C(N[C@@H](c1ccccc1)[C@H]1[C@H]2C[C@@H]3C[C@](Cl)(C2)C[C@@]1(OC(=O)C(F)(F)F)C3)C(F)(F)F [TP-014, (1S,2R,3S,5S,7S)-5-chloro-2-((R)-phenyl(2,2,2-trifluoroacetamido)methyl)adamantan-1-yl 2,2,2-trifluoroacetate]
- calcium concentration increasing effect compared with memantine (Kir6.2 channel; TP-014 1-100 nM vs memantine 100 nM): larger calcium concentration increasing effect than memantine
- cognitive function, new object recognition test (discrimination index) (APP23 mice): effectively improved
- depression-like symptom, immobility time in Kir6.1 defective mice (Kir6.1 defective mice): not effective
